The assay has as its target KRas G12C (Homo sapiens, UniProt P01116, G12C). Put plainly: Cellular inhibition of KRas G12C measured by Phospho-ERK in NCI-H358 cells. It is filed as cell-based. The following applies: pERK(Thr202/Tyr204) normalized with GAPDH, NCI-H358 cells, 3 hours; read-out: IC50. Put shortly:
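Readout is pERK(Thr202/Tyr204) immunofluorescence normalized to GAPDH, expressed as percent of DMSO control and fitted with a 4-parameter curve for IC50. Attached NCI-H358 cells received compound for 3 hours in 0.5% DMSO, followed by fixation and methanol permeabilization.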
KRas G12C, sequence (P01116 1-188 isoform P01116-2 G12C): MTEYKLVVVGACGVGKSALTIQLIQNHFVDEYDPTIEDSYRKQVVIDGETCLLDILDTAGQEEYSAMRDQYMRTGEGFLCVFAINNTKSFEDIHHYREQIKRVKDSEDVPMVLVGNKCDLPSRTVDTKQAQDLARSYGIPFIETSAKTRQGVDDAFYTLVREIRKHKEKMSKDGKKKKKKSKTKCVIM
In general, IC50 refers to the concentration that inhibits the measured activity by half. As for `C=CC(=O)N1CCN(c2nc(OC[C@@H]3CCCN3C)nc3c2CCN(c2cccc(Cl)c2C(F)(F)F)C3)CC1CC#N` (stereo partly drawn) [Example 277, 2-(1-acryloyl-4-(7-(3-chloro-2-(trifluoromethyl)phenyl)-2-(((S)-1-methylpyrrolidin-2-yl)methoxy)-5,6,7,8-tetrahydropyrido [3,4-d]pyrimidin-4-yl)piperazin-2-yl)acetonitrile], the IC50 lay within 0.1 to 1000 nM.
In the case of `C=CC(=O)N1CCN(c2nc(OCCN3CCC(F)(F)CC3)nc3c2CCN(c2cccc4cccc(Cl)c24)C3)C[C@@H]1CC#N` [Example 454], the IC50 was in the range of 0.1 to 1000 nM.
For the compound `Cc1cccc2cccc(N3CCc4c(nc(OC[C@@H]5CCCN5C)nc4N4CCN(C(=O)/C=C/CN(C)C)[C@@H](CC#N)C4)C3)c12` [Example 459, 2-((S)-1-((E)-4-(dimethylamino)but-2-enoyl)-4-(7-(8-methylnaphthalen-1-yl)-2-(((S)-1-methylpyrrolidin-2-yl)methoxy)-5,6,7,8-tetrahydropyrido[3,4-d]pyrimidin-4-yl)piperazin-2-yl)acetonitrile], the IC50 lay within 0.1 to 1000 nM.
With `C=C(Cl)C(=O)N1CCN(c2nc(OC[C@@H]3CCCN3C)nc3c2CCN(c2cccc(C)c2C)C3)C[C@@H]1CC#N` [Example 473, 2-[(2S)-1-(2-chloroprop-2-enoyl)-4-[7-(2,3-dimethylphenyl)-2-[[(2S)-1-methylpyrrolidin-2-yl]methoxy]-6,8-dihydro-5H-pyrido[3,4-d]pyrimidin-4-yl]piperazin-2-yl]acetonitrile] the figure was 0.1 to 1000 nM; with `C=CC(=O)N1CCN(c2nc(OC[C@@H]3CCCN3C)nc3c2CCN(c2cccnc2C(F)(F)F)C3)CC1CC#N` (stereo partly drawn) [Example 226, 2-(1-acryloyl-4-(2-(((S)-1-methylpyrrolidin-2-yl)methoxy)-7-(2-(trifluoromethyl)pyridin-3-yl)-5,6,7,8-tetrahydropyrido[3,4-d]pyrimidin-4-yl)piperazin-2-yl)acetonitrile], 0.1 to 1000 nM; with `C=CC(=O)N1CCN(c2nc(OCCN(C)C)nc3c2CCN(c2cc(O)cc4ccccc24)C3)[C@@H](C)C1` [Example 116, (S)-1-(4-(2-(2-(dimethylamino)ethoxy)-7-(3-hydroxynaphthalen-1-yl)-5,6,7,8-tetrahydropyrido[3,4-d]pyrimidin-4-yl)-3-methylpiperazin-1-yl)prop-2-en-1-one], 0.1 to 1000 nM.
For `C=CC(=O)N1CCN(c2nc(O[C@H](C)CN(C)C)nc3c2CCN(c2cc(O)c(F)c4ccccc24)C3)CC1` [Example 124, (R)-1-(4-(2-((1-(dimethylamino)propan-2-yl)oxy)-7-(4-fluoro-3-hydroxynaphthalen-1-yl)-5,6,7,8-tetrahydropyrido[3,4-d]pyrimidin-4-yl)piperazin-1-yl)prop-2-en-1-one], the half-inhibitory concentration (IC50) was above 1000 nM.
Consider `C=CC(=O)N1CCN(c2nc(OC(C)CN(C)C)nc3c2CCN(c2cc(O)cc4ccccc24)C3)CC1` (centres unmarked) [Example 11, 1-(4-(2-((1-(dimethylamino)propan-2-yl)oxy)-7-(3-hydroxynaphthalen-1-yl)-5,6,7,8-tetrahydropyrido[3,4-d]pyrimidin-4-yl)piperazin-1-yl)prop-2-en-1-one], for which the half-maximal inhibitory concentration (IC50) lay in the range of 0.1 to 1000 nM.
For `C=CC(=O)N1CCN(c2nc(OC[C@@H]3CCCN3C)nc3c2CCN(c2ccccc2C(F)(F)F)C3)CC1` [Example 159, (S)-1-(4-(2-((1-methylpyrrolidin-2-yl)methoxy)-7-(2-(trifluoromethyl)phenyl)-5,6,7,8-tetrahydropyrido[3,4-d]pyrimidin-4-yl)piperazin-1-yl)prop-2-en-1-one], the IC50 was above 1000 nM.
With `C=CC(=O)N1CCN(c2nc(OC[C@@H]3CCCN3C)nc3c2CCN(c2cc(O)cc4ccccc24)C3)C[C@@H]1CC#N` [Example 317] the figure was 0.1 to 1000 nM; with `C=CC(=O)N1CCN(c2nc(OCCN(C)C)nc3c2CCN(c2cc(O)cc4ccccc24)C3)CC1C(=O)N(C)C` (centres unmarked) [Example 51, 1-acryloyl-4-(2-(2-(dimethylamino)ethoxy)-7-(3-hydroxynaphthalen-1-yl)-5,6,7,8-tetrahydropyrido[3,4-d]pyrimidin-4-yl)-N,N-dimethylpiperazine-2-carboxamide], above 1000 nM.

The record behind these values is patent publication US10689377B2 (Mirati Therapeutics, Inc., priority 2017, dated 2020).
